Literature values, collected in US20080131503A1 (priority 2005, published 2008).

Conditions: oral

SMILES: CC(C)c1c(C(=O)Nc2ccccc2)c(-c2ccccc2)c(-c2ccc(F)cc2)n1CC[C@@H](O)C[C@@H](O)CC(=O)O [Atorvastatin]
- Systemic availability of HMG-CoA reductase inhibitory activity: approximately 30%
